We go through five molecules from article PMC3109911 (The Journal of neuroscience : the official journal of the …, 2011).

For one experiment, the system named is D5 receptors. Briefly: ERK1/2 phosphorylation in transfected CHO cells expressing D5 receptors.
The subject of the next experiment is D1 receptors. Description: ERK1/2 phosphorylation in transfected CHO cells expressing D1 receptors.
Experiment [1] relates to Schaffer-CA1 synaptic transmission in rat ventral hippocampal slices. Briefly: Field EPSP recordings from ventral hippocampal slices.
Experiment [2] relates to Schaffer-CA1 synaptic transmission in dorsal hippocampal slices. Description: Field EPSP recordings from dorsal hippocampal slices. The conditions noted are these: SKF 38393 20 nM, n=3.
Experiment [3] concerns galanin receptor. To be noted: ref Lang et al., 2007; cited from earlier work.
The subject of experiment [4] is galanin receptor. To be noted: ref Lang et al., 2007; cited from earlier work. This is another data set of the same source.
The test system of a further experiment is D1-like receptors. The conditions noted are these: ref Hersi et al., 1995; cited from earlier work.

Where a name gives a salt, the structure may show the parent alone.

For `Br.Oc1cc2c(c(Cl)c1O)CCNCC2c1ccccc1` (racemic) [SKF 81297], the “ERK1/2 phosphorylation, time course” value in the experiment on D5 receptors (SKF 81297 50 nM, cells expressing D5) is listed as “time-dependently induced ERK1/2 phosphorylation”; in the experiment with D1 receptors (SKF 81297 (text 50 nM; Fig. 4 legend 70 nM), cells expressing D1) it was “time-dependently induced ERK1/2 phosphorylation”.

Regarding `Oc1cc2c(cc1O)C(c1ccccc1)CNCC2` (racemic) [SKF 38393, (±)-1-Phenyl-2,3,4,5-tetrahydro-(1H)-3-benzazepine-7,8-diol hydrobromide], the “effect on synaptic transmission (fEPSP)” value in experiment [1] (SKF 38393 20 nM after atropine (5 µM, at least 30 min before)) was “did not significantly affect synaptic transmission”. The “effect on the slope of fEPSP” value in experiment [1] (SKF 38393 20 nM alone, n=7) was “virtually devoid of effect”. Besides, the “effect on fEPSP slope” value in experiment [2] is “devoid of any effect on fEPSP slope”.

As for “galanin (1–13)-Pro-Pro-(Ala-Leu-)2Ala amide [M40]”, the antagonism in vivo entry with galanin receptor [3] is listed as “clearly antagonists in vivo”. In addition, the “antagonism of SKF 81297-induced ERK1/2 phosphorylation” value in the experiment with D5 receptors (antagonist 10 µM, 20 min prior, SKF 81297 70 nM, 5 min, cells only expressing D5) was “not modified by the presence of M40”; in the experiment on D1 receptors (antagonist 10 µM, 20 min prior, SKF 81297 70 nM, 5 min, cells only expressing D1), “not modified by the presence of M40”. Besides, the “agonism in cell lines” value in the experiment on galanin receptor [4] is “full agonists in some cell lines”.

On to `CN1[C@@H]2CC[C@H]1C[C@@H](OC(=O)C(CO)c1ccccc1)C2` (some centres unmarked) [atropine], for which the “effect on fEPSP” value in experiment [1] (atropine 5 µM by itself) is “did not significantly modify fEPSP”.

`NCCc1ccc(O)c(O)c1` [dopamine]: the “effect on hippocampal ACh release” value in the experiment with D1-like receptors was “facilitates hippocampal ACh release by acting on D1-like receptors”.
